{"source": "patent US20110009264A1", "about": "“HERBICIDAL COMBINATION” (Bayer CropScience AG, priority 2007, published 2011)", "key": {"[1]": {"test_system": "Veronica persica", "assay": "Post-emergence action against weeds, greenhouse, visual scoring of control", "type": "in vivo", "settings": "11 days after application", "protocol": "(§1) Seeds or rhizome pieces of monocotyledonous and dicotyledonous weeds were placed in sandy loam soil in plastic pots, covered with soil and cultivated in a greenhouse under good growth conditions. Three weeks after sowing, the test plants were treated at the 2- to 4-leaf stage. The compounds according to the invention, formulated as wettable powders or as emulsion concentrates, were sprayed onto the green parts of the plants in various dosages at a water application rate of 100 to 800 l/ha (converted). After the test plants had been left to stand in the greenhouse for 10 to 28 days under optimum growth conditions, the effect of the preparations was scored visually in comparison to untreated controls.\n(§2) 0%=no control 100%=complete control"}, "[2]": {"test_system": "Polygonum convolvulus", "assay": "Post-emergence action against weeds, greenhouse, visual scoring of control", "type": "in vivo", "settings": "11 days after application", "protocol": "as §1, with “(converted).” for “(converted). After the test plants had been left to stand in the greenhouse for 10 to 28 days under optimum growth conditions, the effect of the preparations was scored visually in comparison to untreated controls.”\nas §2"}}, "data": [{"molecule": "sodium salt of 2-iodo-N-[(4-methoxy-6-methyl-1,3,5-triazin-2-yl)carbamoyl]benzenesulfonamide [Compound A-2]", "values": [{"measurement": "Veronica persica Control in %", "setting": "[1]; 2.5 g of ai/ha, 0%=no control, 100%=complete control", "value": 0, "unit": "%"}]}, {"molecule": "COc1c(Cl)ccc(Cl)c1C(=O)O", "note": "[Compound B1-1, dicamba]", "values": [{"measurement": "Polygonum convolvulus Control in %", "setting": "[2]; 100 g of ai/ha", "value": 40, "unit": "%"}]}, {"molecule": "O=C(O)c1nc(Cl)ccc1Cl", "note": "[Compound B2-1, clopyralid]", "values": [{"measurement": "Veronica persica Control in %", "setting": "[1]; 50 g of ai/ha", "value": 0, "unit": "%"}]}, {"molecule": "Nc1c(Cl)c(Cl)nc(C(=O)O)c1Cl", "note": "[Compound B2-4, picloram]", "values": [{"measurement": "Polygonum convolvulus Control in %", "setting": "[2]; 80 g of ai/ha", "value": 20, "unit": "%"}]}, {"molecule": "Nc1c(Cl)c(F)nc(OCC(=O)O)c1Cl", "note": "[Compound B2-2, fluoroxypyr]", "values": [{"measurement": "Veronica persica Control in %", "setting": "[1]; 80 g of ai/ha", "value": 60, "unit": "%"}]}, {"molecule": "Nc1nc(C2CC2)nc(C(=O)[O-])c1Cl.[K+]", "note": "[Compound B6-1, aminocyclopyrachlor]", "values": [{"measurement": "Polygonum convolvulus Control in %", "setting": "[2]; 25 g of ai/ha", "value": 60, "unit": "%"}]}]}
